According to patent US9770452B2, “Quinoxaline derivatives as GPR6 modulators” (Takeda Pharmaceutical Company Limited, priority 2012, dated 2017):
pIC50: −log10 of the molar value.

target: T1, GPR6 receptor (Homo sapiens, UniProt P46095); assay: Inhibition of cAMP Activity of GPR6 In Vitro Assay (CHO-K1 cells, HTRF cAMP); assay type: cell-based; conditions: compounds of Compound Table 1; inhibition of constitutive cAMP activity of GPR6 expressed in CHO-K1 cells; approximate IC50; read-out: IC50
T1 construct: expressed in transfected cells
T1 sequence (P46095 whole entry): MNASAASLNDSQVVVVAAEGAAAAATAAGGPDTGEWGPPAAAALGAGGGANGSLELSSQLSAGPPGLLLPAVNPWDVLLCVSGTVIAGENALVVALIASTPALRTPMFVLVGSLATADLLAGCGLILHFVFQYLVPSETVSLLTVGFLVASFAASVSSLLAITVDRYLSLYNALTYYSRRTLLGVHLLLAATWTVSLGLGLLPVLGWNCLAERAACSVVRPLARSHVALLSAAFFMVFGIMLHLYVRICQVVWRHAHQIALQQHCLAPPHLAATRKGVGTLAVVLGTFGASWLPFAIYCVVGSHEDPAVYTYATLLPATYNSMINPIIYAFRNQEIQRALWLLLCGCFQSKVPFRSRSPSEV
Outline: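 CHO-K1 cells with doxycycline-induced (1 μg/ml, 20 h) GPR6 treated with compounds 45 min at 37 °C in Ringer's buffer (pH 7.4) with 0.5% fatty acid free BSA. Constitutive cAMP measured by Lance HTRF Ultra cAMP; IC50 from four-parameter logistic fit.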

| Substance | pIC50 |
| --- | --- |
| (4-chloro-2-(trifluoromethyl)phenyl)(4-(2-(cyclopropylamino)pyrido[3,4-b]pyrazin-3-yl)piperazin-1-yl)methanone, 2,2,2-trifluoroacetic acid salt [Cpd 392] | 6.59 |
| (4-chloro-2-fluorophenyl)(1-(2-(cyclopropylamino)pyrido[3,4-b]pyrazin-3-yl)piperidin-4-yl)methanone, 2,2,2-trifluoroacetic acid salt [Cpd 447] | 7.46 |
| (4-chloro-2-fluorophenyl)(4-(2-((2,2-difluoroethyl)amino)pyrido[3,4-b]pyrazin-3-yl)piperazin-1-yl)methanone, 2,2,2-trifluoroacetic acid salt [Cpd 369] | 6.40 |
| (4-chloro-3-methylphenyl)(4-(3-(pyridin-3-ylamino)quinoxalin-2-yl)piperazin-1-yl)methanone, 2,2,2-trifluoroacetic acid salt [Cpd 230] | 6.10 |
| (4-chlorophenyl)(1-(2-(cyclopropylamino)pyrido[3,4-b]pyrazin-3-yl)piperidin-4-yl)methanone, 2,2,2-trifluoroacetic acid salt [Cpd 430] | 5.96 |
| (4-chlorophenyl)(4-(2-(cyclopropylamino)pyrido[3,4-b]pyrazin-3-yl)piperazin-1-yl)methanone [Cpd 263] | 6.92 |
| (4-chlorophenyl)(4-(3-(pyridin-3-ylamino)quinoxalin-2-yl)piperazin-1-yl)methanone, 2,2,2-trifluoroacetic acid salt [Cpd 223] | 5.25 |
| (6-chloro-2,3-difluorophenyl)(1-(2-(cyclopropylamino)pyrido[3,4-b]pyrazin-3-yl)piperidin-4-yl)methanone, 2,2,2-trifluoroacetic acid salt [Cpd 569] | 7.21 |
| (R)-2-((3-(4-(2,5-dichlorobenzyl)piperazin-1-yl)quinoxalin-2-yl)amino)propan-1-ol, 2,2,2-trifluoroacetic acid salt [Cpd 172] | 5.63 |
| (R)-2-(cyclopropylamino)-3-(4-((2,4-difluorophenyl)fluoromethyl)piperidin-1-yl)-N,N-dimethylpyrido[3,4-b]pyrazine-7-carboxamide, 2,2,2-trifluoroacetic acid salt [Cpd 578] | 5.14 |
| (R)-3-(4-((2,4-difluorophenyl)fluoromethyl)piperidin-1-yl)-N-isopropylpyrazino[2,3-d]pyridazin-2-amine, 2,2,2-trifluoroacetic acid salt [Cpd 640] | 7.14 |
| (R)-7-chloro-N-cyclopropyl-3-(4-((2,4-difluorophenyl)fluoromethyl)piperidin-1-yl)pyrido[3,4-b]pyrazin-2-amine, 2,2,2-trifluoroacetic acid salt [Cpd 523] | 6.47 |
| (R)-(2-(cyclopropylamino)-3-(4-((2,4-difluorophenyl)fluoromethyl)piperidin-1-yl)pyrido[3,4-b]pyrazin-7-yl)(morpholino)methanone, 2,2,2-trifluoroacetic acid salt [Cpd 580] | 8.10 |
| (R)-azetidin-1-yl(2-(cyclopropylamino)-3-(4-((2,4-difluorophenyl)fluoromethyl)piperidin-1-yl)pyrido[3,4-b]pyrazin-7-yl)methanone [Cpd 589] | 7.16 |
| (R)—N-cyclopropyl-3-(4-((2,4-difluorophenyl)fluoromethyl)piperidin-1-yl)pyrazino[2,3-d]pyridazin-2-amine, 2,2,2-trifluoroacetic acid salt [Cpd 599] | 8.30 |
| (S)-2-(cyclopropylamino)-3-(4-((2,4-difluorophenyl)fluoromethyl)piperidin-1-yl)-N,N-dimethylpyrido[3,4-b]pyrazine-7-carboxamide, 2,2,2-trifluoroacetic acid salt [Cpd 576] | 5.54 |
| (S)-2-(cyclopropylamino)-3-(4-((2,4-difluorophenyl)fluoromethyl)piperidin-1-yl)-N,N-dimethylpyrido[3,4-b]pyrazine-7-carboxamide, 2,2,2-trifluoroacetic acid salt [Cpd 577] | 5.31 |
| (S)-2-(cyclopropylamino)-3-(4-((2,4-difluorophenyl)fluoromethyl)piperidin-1-yl)pyrido[3,4-b]pyrazine-7-carbonitrile [Cpd 547] | 7.80 |
| (S)-3-(cyclopropylamino)-2-(4-((2,4-difluorophenyl)fluoromethyl)piperidin-1-yl)pyrido[3,4-b]pyrazine-7-carbonitrile [Cpd 550] | 7.77 |
| (S)-3-(cyclopropylamino)-2-(4-((2,4-difluorophenyl)fluoromethyl)piperidin-1-yl)quinoxaline-6-carbonitrile [Cpd 509] | 7.31 |
| (S)-(2-(cyclopropylamino)-3-(4-((2,4-difluorophenyl)fluoromethyl)piperidin-1-yl)pyrido[3,4-b]pyrazin-7-yl)(morpholino)methanone, 2,2,2-trifluoroacetic acid salt [Cpd 579] | 8.00 |
| (S)—N-(sec-butyl)-3-(4-(2-fluoro-4-methoxyphenoxy)piperidin-1-yl)pyrazino[2,3-d]pyridazin-2-amine, 2,2,2-trifluoroacetic acid salt [Cpd 637] | 7.59 |

| Substance | pIC50 |
| --- | --- |
| (S)—N-cyclopropyl-3-(4-((2,4-difluorophenyl)fluoromethyl)piperidin-1-yl)-5-methylpyrido[3,4-b]pyrazin-2-amine, 2,2,2-trifluoroacetic acid salt [Cpd 516] | 7.54 |
| (S)—N-cyclopropyl-3-(4-((2,4-difluorophenyl)fluoromethyl)piperidin-1-yl)-7-methylpyrido[3,4-b]pyrazin-2-amine, 2,2,2-trifluoroacetic acid salt [Cpd 502] | 5.84 |
| (S)—N-cyclopropyl-3-(4-((2,4-difluorophenyl)fluoromethyl)piperidin-1-yl)pyrazino[2,3-d]pyridazin-2-amine, 2,2,2-trifluoroacetic acid salt [Cpd 594] | 7.51 |
| N2-cyclopropyl-3-(4-(2-fluoro-4-methoxyphenoxy)piperidin-1-yl)-N5,N5-dimethylpyrido[3,4-b]pyrazine-2,5-diamine, 2,2,2-trifluoroacetic acid salt [Cpd 607] | 7.37 |
| N-cyclobutyl-2-(4-(2,4-difluorophenoxy)piperidin-1-yl)pyrido[3,4-b]pyrazin-3-amine [Cpd 657] | 8.10 |
| N-cyclohexyl-3-(4-(2,5-dichlorobenzyl)piperazin-1-yl)quinoxalin-2-amine, 2,2,2-trifluoroacetic acid salt [Cpd 170] | 5.39 |
| N-cyclopropyl-2-(4-(2,4-difluorobenzyl)piperidin-1-yl)pyrido[3,4-b]pyrazin-3-amine, 2,2,2-trifluoroacetic acid salt [Cpd 427] | 7.11 |
| N-cyclopropyl-2-(4-(2,5-difluorobenzyl)piperazin-1-yl)pyrido[3,4-b]pyrazin-3-amine, 2,2,2-trifluoroacetic acid salt [Cpd 292] | 7.25 |
| N-cyclopropyl-3-(4-(2,3,5-trichlorobenzyl)piperazin-1-yl)quinoxalin-2-amine, 2,2,2-trifluoroacetic acid salt [Cpd 221] | 4.69 |
| N-cyclopropyl-3-(4-(2,4-difluorobenzyl)piperidin-1-yl)-5-methylpyrido[3,4-b]pyrazin-2-amine, 2,2,2-trifluoroacetic acid salt [Cpd 493] | 8.05 |
| N-cyclopropyl-3-(4-(2,4-difluorobenzyl)piperidin-1-yl)-6-fluoroquinoxalin-2-amine, 2,2,2-trifluoroacetic acid salt [Cpd 479] | 6.85 |
| N-cyclopropyl-3-(4-(2,4-difluorobenzyl)piperidin-1-yl)pyrido[3,4-b]pyrazin-2-amine, 2,2,2-trifluoroacetic acid salt [Cpd 414] | 6.41 |
| N-cyclopropyl-3-(4-(2,4-difluorophenoxy)piperidin-1-yl)-5-methylpyrido[3,4-b]pyrazin-2-amine, 2,2,2-trifluoroacetic acid salt [Cpd 494] | 8.70 |
| N-cyclopropyl-3-(4-(2,4-difluorophenoxy)piperidin-1-yl)pyrazino[2,3-d]pyridazin-2-amine, 2,2,2-trifluoroacetic acid salt [Cpd 619] | 7.85 |
| N-cyclopropyl-3-(4-(2,5-dichlorobenzyl)piperazin-1-yl)pyrido[3,4-b]pyrazin-2-amine, 2,2,2-trifluoroacetic acid salt [Cpd 134] | 5.79 |
| N-cyclopropyl-3-(4-(2,5-difluorophenoxy)piperidin-1-yl)pyrido[3,4-b]pyrazin-2-amine, 2,2,2-trifluoroacetic acid salt [Cpd 431] | 6.77 |
| N-cyclopropyl-3-(4-(2-fluoro-4-(methylthio)phenoxy)piperidin-1-yl)pyrazino[2,3-d]pyridazin-2-amine, 2,2,2-trifluoroacetic acid salt [Cpd 618] | 7.92 |
| N-cyclopropyl-3-(4-(2-methoxyphenoxy)piperidin-1-yl)pyrido[3,4-b]pyrazin-2-amine, 2,2,2-trifluoroacetic acid salt [Cpd 559] | 7.17 |
| N-cyclopropyl-3-(4-(3-isopropylbenzyl)piperazin-1-yl)quinoxalin-2-amine, 2,2,2-trifluoroacetic acid salt [Cpd 211] | 5.03 |
| N-cyclopropyl-3-(4-(3-methoxyphenoxy)piperidin-1-yl)pyrido[3,4-b]pyrazin-2-amine, 2,2,2-trifluoroacetic acid salt [Cpd 558] | 5.71 |
| N-cyclopropyl-3-(4-(4-(methylthio)phenoxy)piperidin-1-yl)pyrido[3,4-b]pyrazin-2-amine, 2,2,2-trifluoroacetic acid salt [Cpd 600] | 7.70 |
